What was measured:
human TTK = molecular target: T1, human TTK (Homo sapiens, UniProt P33981); assay: TTK inhibition assay (indirect ELISA); assay type: biochemical; conditions: read-out: TTK IC50 Range
T1 construct: amino terminal GST fusion of full length human TTK; purchased Invitrogen
T1 sequence (P33981 1-857): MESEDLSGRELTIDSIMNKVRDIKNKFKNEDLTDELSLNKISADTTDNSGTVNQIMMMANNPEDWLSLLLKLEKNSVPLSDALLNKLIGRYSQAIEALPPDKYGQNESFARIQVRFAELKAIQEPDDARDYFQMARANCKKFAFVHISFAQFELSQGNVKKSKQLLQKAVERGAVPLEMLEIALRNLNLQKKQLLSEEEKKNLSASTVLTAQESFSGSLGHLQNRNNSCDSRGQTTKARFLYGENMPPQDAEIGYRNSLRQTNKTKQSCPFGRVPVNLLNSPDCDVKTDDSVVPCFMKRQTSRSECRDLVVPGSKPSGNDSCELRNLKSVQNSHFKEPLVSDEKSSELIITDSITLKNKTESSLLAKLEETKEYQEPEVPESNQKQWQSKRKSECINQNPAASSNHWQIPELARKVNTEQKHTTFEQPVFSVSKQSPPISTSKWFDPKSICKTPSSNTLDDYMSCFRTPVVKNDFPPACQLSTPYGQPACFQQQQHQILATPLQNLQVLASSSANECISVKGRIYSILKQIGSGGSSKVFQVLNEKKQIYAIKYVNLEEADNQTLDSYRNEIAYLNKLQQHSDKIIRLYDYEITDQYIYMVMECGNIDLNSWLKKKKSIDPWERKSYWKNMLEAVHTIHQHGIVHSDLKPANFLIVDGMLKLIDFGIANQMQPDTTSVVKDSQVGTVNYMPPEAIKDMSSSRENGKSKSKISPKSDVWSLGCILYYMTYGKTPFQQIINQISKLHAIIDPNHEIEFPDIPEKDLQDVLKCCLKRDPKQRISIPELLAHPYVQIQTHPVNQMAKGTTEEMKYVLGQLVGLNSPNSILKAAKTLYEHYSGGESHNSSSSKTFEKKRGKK

[1] = system: ovarian cancer cells (PA-1); assay: Cancer cell line growth inhibition (SRB assay); assay type: cell-based; conditions: Homo sapiens, PA-1; read-out: Cancer Cell Line GI50 Range PA-1
TICs (Colon 12) = assay: Colon tumor-initiating cell growth inhibition (Alamar Blue); assay type: cell-based; conditions: 216 h; Colon 12 TICs, 9 days; read-out: Tumor Initiating Cell GI50 Range Colon 12
TICs (Ovarian 2393A) = assay: Ovarian tumor-initiating cell growth inhibition (Alamar Blue); assay type: cell-based; conditions: 144 h; Ovarian 2393A TICs, 6 days; read-out: Tumor Initiating Cell GI50 Range Ovarain 2393A
[2] = system: colon cancer cells (HCT116); assay: Cancer cell line growth inhibition (SRB assay); assay type: cell-based; conditions: Homo sapiens, HCT-116; read-out: Cancer Cell Line GI50 Range HCT116
Description: Breast cancer cells (MDA-MB-231), colon cancer cells (HCT116) and ovarian cancer cells (PA-1) were seeded (1000 to 4000 in 80 μl per well depending on the cell growth rate) into 96 well plates 24 hours before compound overlay. Compounds were prepared as 10 mM stock solutions in 100% DMSO which were diluted with DMEM (Dulbecco's Modified Eagle's Medium) cell growth Medium (Invitrogen, Burlington, ON, Canada) containing 10% FBS (Fetal Bovine Serum) to concentrations ranging from 50 nM to 250 μM. Aliquots (20 μl) from each concentration were overlaid to 80 μl of the pre-seeded cells in the 96 well plates to make final concentrations of 10 nM to 50 μM. The cells were cultured for 5 days before the Sulforhodamine B assay (SRB) was performed to determine the compound's cell growth inhibition activity.
Sulforhodamine B (purchased from Sigma, Oakville, ON, Canada) is a water-soluble dye that binds to the basic amino acids of the cellular proteins. Thus, colorimetric measurement of the bound dye provides an estimate of the total protein mass that is related to the cell number. the cells are fixed in situ by gently aspirating off the culture media and adding 50 μl ice cold 10% Trichloroacetic Acid (TCA) per well and incubate at 4° C. for 30-60 min. The plates are washed with H2O five times and allowed to air dry for 5 min. Addition of 50 μl 0.4% (w/v) SRB solution in 1% (v/v) acetic acid to each well and incubation for 30 min at RT completes the staining reaction. Following staining, plates are washed four times with 1% acetic acid to remove unbound dye and then allowed to air dry for 5 min. The stain is solubilized with 100 μl of 10 mM Tris pH 10.5 per well. Absorbance is read at 570 nm.
The percentage (%) of relative growth inhibition was calculated by comparing to DMSO treated only cells (100%). GI50's were determined for compounds with cytotoxic activity. The GI50 was calculated using GraphPad PRISM software (GraphPad Software, Inc., San Diego, Calif., USA).

Breast cancer cells = assay: Cancer cell line growth inhibition (SRB assay); assay type: cell-based; conditions: Homo sapiens; MDA-MB-468; read-out: Cancer Cell Line GI50 Range MDA-MB-468

| SMILES | IC50 (human TTK) | GI50 [1] | GI50 (TICs (Colon 12)) | GI50 (TICs (Ovarian 2393A)) | GI50 [2] | GI50 (Breast cancer cells) |
| --- | --- | --- | --- | --- | --- | --- |
| O=C(N[C@H](c1ccccn1)C1CCCC1)c1ccc2[nH]nc(-c3ccc(N4CCCN(C5COC5)CC4)cc3)c2c1 [Example A370, (S)-N-(cyclopentyl(pyridin-2-yl)methyl)-3-(4-(4-(oxetan-3-yl)-1,4-diazepan-1-yl)phenyl)-1H-indazole-5-carboxamide] | < 100 nM | < 100 nM | < 100 nM | 100 to 500 nM | < 100 nM | < 100 nM |
| CN1C2CCC1CC(Oc1ccc(-c3n[nH]c4ccc(C(=O)N[C@H](c5ccccc5)C5CC5)cc34)cc1)C2 (stereo partly drawn) [Example A376, N-((S)-cyclopropyl(phenyl)methyl)-3-(4-(((1R,3R,5S)-8-methyl-8-azabicyclo[3.2.1]octan-3-yl)oxy)phenyl)-1H-indazole-5-carboxamide] | < 100 nM | < 100 nM | 100 to 500 nM | 100 to 500 nM | < 100 nM | 100 to 500 nM |
| CN1C2CCC1CC(Oc1ccc(-c3n[nH]c4ccc(C(=O)N[C@@H](c5ccccc5)C5CC5)cc34)cc1)C2 (stereo partly drawn) [Example A378, N-((R)-cyclopropyl(phenyl)methyl)-3-(4-(((1R,3R,5S)-8-methyl-8-azabicyclo[3.2.1]octan-3-yl)oxy)phenyl)-1H-indazole-5-carboxamide] | < 100 nM | < 100 nM | 100 to 500 nM | 100 to 500 nM | < 100 nM | 100 to 500 nM |
| CN1CCC(Oc2ccc(-c3n[nH]c4ccc(C(=O)N[C@@H](c5ccccn5)C5CC5)cc34)cc2Cl)CC1 [Example A386, (R)-3-(3-chloro-4-((1-methylpiperidin-4-yl)oxy)phenyl)-N-(cyclopropyl(pyridin-2-yl)methyl)-1H-indazole-5-carboxamide] | < 100 nM | 100 to 500 nM | 100 to 500 nM | > 500 nM | 100 to 500 nM | > 500 nM |
| CN1[C@@H]2CCC[C@H]1C[C@@H](Oc1ccc(-c3n[nH]c4ccc(C(=O)NC(c5ccccn5)C5CCCC5)cc34)cc1)C2 (stereo partly drawn) [Example A391, N-(cyclopentyl(pyridin-2-yl)methyl)-3-(4-(((1R,3R,5S)-9-methyl-9-azabicyclo[3.3.1]nonan-3-yl)oxy)phenyl)-1H-indazole-5-carboxamide] | < 100 nM | < 100 nM | < 100 nM | 100 to 500 nM | < 100 nM | 100 to 500 nM |
| CC(C)C(NC(=O)c1ccc2[nH]nc(-c3ccc(O[C@H]4C[C@H]5CCC[C@@H](C4)N5C)cc3)c2c1)c1ccccc1Cl (stereo partly drawn) [Example A394, N-(1-(2-chlorophenyl)-2-methylpropyl)-3-(4-(((lR,3R,5S)-9-methyl-9-azabicyclo[3.3.1]nonan-3-yl)oxy)phenyl)-1H-indazole-5-carboxamide] | < 100 nM | 100 to 500 nM | 100 to 500 nM | 100 to 500 nM | < 100 nM | 100 to 500 nM |
| CC(C)C(NC(=O)c1ccc2[nH]nc(-c3ccc(OC4CC5CCC(C4)N5C)cc3)c2c1)c1ccccn1 (stereo not drawn) [Example A395, N-(2-methyl-1-(pyridin-2-yl)propyl)-3-(4-((8-methyl-8-azabicyclo [3.2.1]octan-3-yl)oxy)phenyl)-1H-indazole-5-carboxamide] | < 100 nM | < 100 nM | < 100 nM | 100 to 500 nM | < 100 nM | < 100 nM |
| O=C(N[C@@H](c1ccccn1)C1CCCC1)c1ccc2[nH]nc(-c3ccc(N4CCN(C5COC5)CC4)cc3)c2c1 [Example A411, (R)-N-(cyclopentyl(pyridin-2-yl)methyl)-3-(4-(4-(oxetan-3-yl)piperazin-1-yl)phenyl)-1H-indazole-5-carboxamide] | < 100 nM | < 100 nM | < 100 nM | < 100 nM | < 100 nM | < 100 nM |
| O=C(N[C@H](c1ccccn1)C1CCCC1)c1ccc2[nH]nc(-c3ccc(N4C5COCC4CC(O)C5)cc3)c2c1 (stereo partly drawn) [Example A420, N-((S)-cyclopentyl(pyridin-2-yl)methyl)-3-(4-((1R,5S,7R)-7-hydroxy-3-oxa-9-azabicyclo[3.3.1]nonan-9-yl)phenyl)-1H-indazole-5-carboxamide] | < 100 nM | < 100 nM | < 100 nM | < 100 nM | < 100 nM | < 100 nM |
| CC(C)[C@H](NC(=O)c1ccc2[nH]nc(-c3ccc(N4C5COCC4CC(O)C5)cc3)c2c1)c1ccccc1Cl (stereo partly drawn) [Example A421, N((S)-1-(2-chlorophenyl)-2-methylpropyl)-3-(4-((1R,5S,7R)-7-hydroxy-3-oxa-9-azabicyclo [3.3.1]nonan-9-yl)phenyl)-1H-indazole-5-carboxamide] | < 100 nM | < 100 nM | < 100 nM | < 100 nM | < 100 nM | < 100 nM |
| O=C(NCC1(N2CCOCC2)CCCCC1)c1ccc2[nH]nc(-c3ccc(N4CCN(CCO)CC4)cc3)c2c1 [Example A459, 3-(4-(4-(2-hydroxyethyl)piperazin-1-yl)phenyl)-N-((1-morpholinocyclohexyl)methyl)-1H-indazole-5-carboxamide] | < 100 nM | < 100 nM | 100 to 500 nM | 100 to 500 nM | < 100 nM | 100 to 500 nM |
| CN1[C@@H]2CC[C@H]1C[C@@H](Oc1ccc(-c3n[nH]c4ccc(C(=O)NCC5(c6ccccc6)CCOCC5)cc34)cc1)C2 [Example A484, 3-(4-(((1R,3R,5S)-8-methyl-8-azabicyclo[3.2.1]octan-3-yl)oxy)phenyl)-N-((4-phenyltetrahydro-2H-pyran-4-yl)methyl)-1H-indazole-5-carboxamide] | < 100 nM | < 100 nM | 100 to 500 nM | 100 to 500 nM | < 100 nM | 100 to 500 nM |
| CC1=CC2(CCN(C)CC2)Oc2ccc(-c3n[nH]c4ccc(C(=O)NCC5(N6CCOCC6)CCCCC5)cc34)cc21 [Example A489, 3-(1′,4-dimethylspiro[chromene-2,4′-piperidin]-6-yl)-N-((1-morpholinocyclohexyl)methyl)-1H-indazole-5-carboxamide] | < 100 nM | < 100 nM | < 100 nM | < 100 nM | < 100 nM | < 100 nM |
| O=C(NCC1(c2ccccc2)CCOCC1)c1ccc2[nH]nc(-c3ccc(N4[C@@H]5CC[C@H]4COC5)cc3)c2c1 [Example A502, 3-(4-((1R,5S)-3-oxa-8-azabicyclo[3.2.1]octan-8-yl)phenyl)-N-((4-phenyltetrahydro-2H-pyran-4-yl)methyl)-1H-indazole-5-carboxamide] | < 100 nM | < 100 nM | < 100 nM | < 100 nM | < 100 nM | < 100 nM |
| O=C(NCC1(N2CCOCC2)CCCCC1)c1ccc2[nH]nc(-c3ccc(N4CCNCC4)cc3)c2c1 [Example A505, N-((1-morpholinocyclohexyl)methyl)-3-(4-(piperazin-1-yl)phenyl)-1H-indazole-5-carboxamide] | < 100 nM | < 100 nM | > 500 nM | 100 to 500 nM | < 100 nM | 100 to 500 nM |
| O=C(NCC1(N2CCOCC2)CCCCC1)c1ccc2[nH]nc(-c3ccc(N4[C@@H]5CC[C@H]4C[C@@H](O)C5)cc3)c2c1 [Example A508, 3-(4-((1R,3R,5S)-3-hydroxy-8-azabicyclo[3.2.1]octan-8-yl)phenyl)-N-((1-morpholinocyclohexyl)methyl)-1H-indazole-5-carboxamide] | < 100 nM | < 100 nM | < 100 nM | < 100 nM | < 100 nM | < 100 nM |
